Among the targets are Carbonic anhydrase 2 (Homo sapiens, UniProt P00918); Carbonic anhydrase 9 (Homo sapiens, UniProt Q16790); Carbonic anhydrase 12 (Homo sapiens, UniProt O43570); Carbonic anhydrase 1 (Homo sapiens, UniProt P00915); Carbonic anhydrase 3 (Homo sapiens, UniProt P07451); Carbonic anhydrase 6 (Homo sapiens, UniProt P23280); Carbonic anhydrase 7 (Homo sapiens, UniProt P43166).
The target in the next test is Carbonic anhydrase 13 (Homo sapiens, UniProt Q8N1Q1). The test is described as follows: Inhibition of human CA13 by stopped-flow CO2 hydrase assay.
Sequence of Carbonic anhydrase 13 (Q8N1Q1 whole entry): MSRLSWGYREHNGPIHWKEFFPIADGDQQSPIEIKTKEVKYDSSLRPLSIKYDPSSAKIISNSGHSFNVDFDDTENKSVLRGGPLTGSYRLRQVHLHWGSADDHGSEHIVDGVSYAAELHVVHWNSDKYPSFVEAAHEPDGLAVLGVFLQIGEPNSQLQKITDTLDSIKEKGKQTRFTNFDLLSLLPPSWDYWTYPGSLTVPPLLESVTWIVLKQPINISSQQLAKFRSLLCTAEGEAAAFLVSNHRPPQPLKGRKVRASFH
For a further test, the target named is Carbonic anhydrase 14 (Homo sapiens, UniProt Q9ULX7). In words: Inhibition of human CA14 by stopped-flow CO2 hydrase assay.
Sequence of Carbonic anhydrase 14 (Q9ULX7 whole entry): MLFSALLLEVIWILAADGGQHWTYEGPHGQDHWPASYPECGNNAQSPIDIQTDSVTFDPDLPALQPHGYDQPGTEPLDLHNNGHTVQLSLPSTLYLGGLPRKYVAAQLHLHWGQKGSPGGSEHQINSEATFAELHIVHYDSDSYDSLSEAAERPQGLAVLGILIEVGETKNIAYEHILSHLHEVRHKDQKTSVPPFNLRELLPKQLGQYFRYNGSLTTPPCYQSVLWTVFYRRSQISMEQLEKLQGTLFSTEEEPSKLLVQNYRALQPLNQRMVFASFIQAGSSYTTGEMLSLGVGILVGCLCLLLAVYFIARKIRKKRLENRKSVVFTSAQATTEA
The target of test [1] is Carbonic anhydrase 5B, mitochondrial (Homo sapiens, UniProt Q9Y2D0). In words: Inhibition of human CA5B by stopped-flow CO2 hydrase assay.
Sequence of Carbonic anhydrase 5B, mitochondrial (Q9Y2D0 whole entry): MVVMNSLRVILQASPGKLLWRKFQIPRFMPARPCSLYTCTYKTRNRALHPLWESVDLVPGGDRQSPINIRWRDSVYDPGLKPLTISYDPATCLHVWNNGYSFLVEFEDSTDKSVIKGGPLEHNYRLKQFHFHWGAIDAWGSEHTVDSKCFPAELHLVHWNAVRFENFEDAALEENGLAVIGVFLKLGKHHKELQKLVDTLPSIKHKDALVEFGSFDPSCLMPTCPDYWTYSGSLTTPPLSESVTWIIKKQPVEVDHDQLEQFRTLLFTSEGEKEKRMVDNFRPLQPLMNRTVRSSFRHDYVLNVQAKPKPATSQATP
For test [2], the target named is Carbonic anhydrase 5A, mitochondrial (Homo sapiens, UniProt P35218). In words: Inhibition of human CA5A by stopped-flow CO2 hydrase assay.
Sequence of Carbonic anhydrase 5A, mitochondrial (P35218 whole entry): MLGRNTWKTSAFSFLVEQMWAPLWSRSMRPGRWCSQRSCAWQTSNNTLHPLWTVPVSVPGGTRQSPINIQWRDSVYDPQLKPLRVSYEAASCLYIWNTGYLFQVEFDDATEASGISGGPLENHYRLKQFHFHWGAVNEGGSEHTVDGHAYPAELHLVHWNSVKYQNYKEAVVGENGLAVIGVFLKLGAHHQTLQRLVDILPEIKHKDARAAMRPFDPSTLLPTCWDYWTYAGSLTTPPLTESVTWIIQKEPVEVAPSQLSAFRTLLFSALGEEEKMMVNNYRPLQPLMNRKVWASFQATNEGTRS
In the next test the target is Carbonic anhydrase 4 (Homo sapiens, UniProt P22748). In words: Inhibition of human CA4 by stopped-flow CO2 hydrase assay.
Sequence of Carbonic anhydrase 4 (P22748 whole entry): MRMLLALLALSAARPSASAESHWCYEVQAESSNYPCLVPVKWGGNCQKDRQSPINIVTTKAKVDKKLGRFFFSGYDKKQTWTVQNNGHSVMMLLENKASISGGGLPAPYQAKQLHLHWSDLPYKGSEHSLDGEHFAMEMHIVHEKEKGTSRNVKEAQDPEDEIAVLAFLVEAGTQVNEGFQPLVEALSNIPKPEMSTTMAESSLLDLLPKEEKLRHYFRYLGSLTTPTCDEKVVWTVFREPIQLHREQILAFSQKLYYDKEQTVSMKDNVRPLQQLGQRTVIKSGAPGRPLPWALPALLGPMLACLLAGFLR
The next test deals with T1, Carbonic anhydrase 15 (Mus musculus, UniProt Q99N23).
T1 sequence (Q99N23 whole entry): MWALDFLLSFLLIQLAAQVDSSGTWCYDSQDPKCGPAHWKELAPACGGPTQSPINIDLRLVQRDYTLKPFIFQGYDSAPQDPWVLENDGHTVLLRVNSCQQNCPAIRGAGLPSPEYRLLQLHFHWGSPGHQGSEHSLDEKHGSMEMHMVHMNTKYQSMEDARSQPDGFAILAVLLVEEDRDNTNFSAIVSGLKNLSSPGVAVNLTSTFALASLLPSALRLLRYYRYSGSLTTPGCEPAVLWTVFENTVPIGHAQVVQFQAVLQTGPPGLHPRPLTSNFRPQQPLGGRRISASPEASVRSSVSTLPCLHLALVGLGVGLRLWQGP

Molecules are shown by their SMILES.

Sequence of Carbonic anhydrase 12 (O43570 whole entry): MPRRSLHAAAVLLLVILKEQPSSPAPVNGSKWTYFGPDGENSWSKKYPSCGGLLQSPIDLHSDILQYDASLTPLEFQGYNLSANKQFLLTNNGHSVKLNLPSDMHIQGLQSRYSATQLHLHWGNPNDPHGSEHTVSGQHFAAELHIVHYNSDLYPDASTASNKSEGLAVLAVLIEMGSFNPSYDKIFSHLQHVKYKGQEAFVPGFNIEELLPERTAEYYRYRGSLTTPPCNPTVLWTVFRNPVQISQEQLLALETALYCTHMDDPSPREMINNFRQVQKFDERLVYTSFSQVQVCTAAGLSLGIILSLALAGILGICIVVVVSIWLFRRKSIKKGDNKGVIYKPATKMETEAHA
Sequence of Carbonic anhydrase 1 (P00915 whole entry): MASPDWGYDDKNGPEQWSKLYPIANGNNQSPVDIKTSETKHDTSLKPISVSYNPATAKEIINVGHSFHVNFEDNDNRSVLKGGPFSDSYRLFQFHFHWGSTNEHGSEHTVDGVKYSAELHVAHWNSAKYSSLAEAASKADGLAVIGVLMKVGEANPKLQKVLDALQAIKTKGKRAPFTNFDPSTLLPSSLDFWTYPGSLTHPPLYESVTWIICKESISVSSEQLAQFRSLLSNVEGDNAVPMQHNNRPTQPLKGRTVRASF
Sequence of Carbonic anhydrase 6 (P23280 whole entry): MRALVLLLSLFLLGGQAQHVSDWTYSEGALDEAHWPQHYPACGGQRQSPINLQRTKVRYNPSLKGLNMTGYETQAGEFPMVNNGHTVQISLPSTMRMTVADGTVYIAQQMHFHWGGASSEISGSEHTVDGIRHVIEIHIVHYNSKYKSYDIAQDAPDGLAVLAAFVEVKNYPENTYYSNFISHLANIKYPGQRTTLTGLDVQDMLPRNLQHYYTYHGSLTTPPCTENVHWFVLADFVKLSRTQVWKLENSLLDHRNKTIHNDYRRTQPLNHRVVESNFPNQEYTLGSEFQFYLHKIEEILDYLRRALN
Sequence of Carbonic anhydrase 3 (P07451 whole entry): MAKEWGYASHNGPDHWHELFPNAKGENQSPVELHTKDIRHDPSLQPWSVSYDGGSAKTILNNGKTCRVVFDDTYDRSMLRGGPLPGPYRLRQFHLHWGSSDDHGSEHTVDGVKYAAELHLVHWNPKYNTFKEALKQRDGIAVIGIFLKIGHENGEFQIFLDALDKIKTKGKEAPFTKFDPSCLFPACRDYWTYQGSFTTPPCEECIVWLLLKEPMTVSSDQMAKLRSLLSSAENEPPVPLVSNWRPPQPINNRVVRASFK
Sequence of Carbonic anhydrase 7 (P43166 whole entry): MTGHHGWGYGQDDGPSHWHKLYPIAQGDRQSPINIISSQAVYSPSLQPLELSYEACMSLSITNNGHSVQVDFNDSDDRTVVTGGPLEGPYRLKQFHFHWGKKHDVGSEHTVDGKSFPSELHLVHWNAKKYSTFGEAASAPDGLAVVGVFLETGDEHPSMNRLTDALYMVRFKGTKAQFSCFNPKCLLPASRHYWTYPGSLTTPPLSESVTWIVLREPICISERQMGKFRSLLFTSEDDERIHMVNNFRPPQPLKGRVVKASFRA
Description for Carbonic anhydrase 12: Inhibition of human CA12 by stopped-flow CO2 hydrase assay
Description for Carbonic anhydrase 15: Inhibition of mouse CA15 by stopped-flow CO2 hydrase assay
Description for Carbonic anhydrase 2: Inhibition of human CA2 by stopped-flow CO2 hydrase assay
Description for Carbonic anhydrase 3: Inhibition of human CA3 by stopped-flow CO2 hydrase assay
Description for Carbonic anhydrase 6: Inhibition of human CA6 by stopped-flow CO2 hydrase assay
Description for Carbonic anhydrase 7: Inhibition of human CA7 by stopped-flow CO2 hydrase assay
Description for Carbonic anhydrase 9: Inhibition of human CA9 by stopped-flow CO2 hydrase assay

What is called Ki is the dissociation constant of the complex between target and ligand, obtained from inhibition or displacement. A lower Ki goes with tighter binding. `OB1OCc2ccccc21` [BENZOXABOROLE]: the Ki at Carbonic anhydrase 2 was 8.18 µM; on Carbonic anhydrase 9, more than 50 µM; at Carbonic anhydrase 12, more than 50 µM; at Carbonic anhydrase 1, 5.69 µM.
Consider `CC(C)C[C@H](NC(=O)[C@H](Cc1ccccc1)NC(=O)c1cnccn1)B(O)O` [BORTEZOMIB], for which the Ki turned out to be 4.57 µM at Carbonic anhydrase 3; 8.45 µM at Carbonic anhydrase 13; 4.38 µM at Carbonic anhydrase 6; 6.94 µM at Carbonic anhydrase 7; 3.38 µM on Carbonic anhydrase 9; 5.87 µM at Carbonic anhydrase 12. In addition, the inhibitory constant (Ki) was 3.28 µM at Carbonic anhydrase 14; 6.83 µM in test [1]; 6.92 µM in test [2]; 6.51 µM on Carbonic anhydrase 4; 2.68 µM at Carbonic anhydrase 15.
On to `OB(O)c1ccccc1` [PHENYLBORONIC ACID], for which the inhibition constant Ki at Carbonic anhydrase 2, at Carbonic anhydrase 3, at Carbonic anhydrase 13, on Carbonic anhydrase 6, at Carbonic anhydrase 9 and on Carbonic anhydrase 12 was more than 50 µM throughout. The inhibitory constant (Ki) (at Carbonic anhydrase 1; at Carbonic anhydrase 14; in test [1]; in test [2]) was more than 50 µM each time.
